Several values for one entry are separate records, joined by “and”; a condition that tells them apart may be missing. Equal entries are not always repeated.
Key:
Type in all cases: in vivo, human
[1] = test system: myelofibrosis; experiment: SIMPLIFY-1 Phase 3 trial: safety (anemia, platelet counts, hemoglobin)
Protocol: In the SIMPLIFY-1 trial (NCT01969838), the efficacy and safety of MMB versus ruxolitinib (RUX) was studied in patients with myelofibrosis who were naïve to treatment with a JAK inhibitor and a platelet count of ≥50×10^9/L. Patients (N=432) with high risk or intermediate-2 risk or symptomatic intermediate-1 risk myelofibrosis received 24 weeks of treatment with 200 mg MMB once daily or 20 mg RUX twice a day (or per label), after which all patients could receive open-label momelotinib. […] The primary endpoint was a reduction by at least 35% in the spleen volume at 24 weeks compared with baseline.
The mean platelet count for RUX patients is demonstrably lower than the mean platelet count for MMB patients.
The MMB subjects were thus at lower risk of developing thrombocytopenia (e.g., Grade 3 or 4 thrombocytopenia), or of having to undergo undesirable dose reduction because they were able to largely maintain their platelet counts during therapy.

[2] = test system: myelofibrosis; experiment: Combined analysis of TI response in TD patients from SIMPLIFY-1, SIMPLIFY-2 and '1672; conditions: combined TD patients from SIMPLIFY-1, SIMPLIFY-2 and '1672 (n=152)
Text: This aggregate data is representative of a continuum of Intermediate/High Risk MF patients.

[3] = test system: myelofibrosis; experiment: Translational biology Phase 2 study (GS-US-352-1672) in transfusion dependent MF patients
Text: In a translational biology study, we determined the impact of momelotinib on plasma hepcidin, markers of iron storage and availability, erythropoiesis, and inflammation to explore mechanisms of the favorable effects of momelotinib on MF-associated anemia and transfusion independence. See Oh et al. “Hepcidin Suppression by Momelotinib Is Associated With Increased Iron Availability and Erythropoiesis in Transfusion-Dependent Myelofibrosis Patients”, Abstract #4282: Presented at ASH 60th Annual Meeting & Exposition: Dec. 1-4, 2018, San Diego, Calif., the disclosure of which is herein incorporated by reference.
Population: Primary MF (PMF), post-polycythemia vera MF (post-PV MF), or post-essential thrombocythemia MF (post-ET MF). Requiring MF therapy (in the opinion of the investigator). High risk or intermediate-2 (DIPSS). Transfusion Dependent (TD) at baseline. [defined as ≥4 U red blood cell (RBC) transfusion in the 8 weeks prior to the first dose of MMB]. Goal: Exploratory translational biology study (MMB: N=41 subjects). Objectives: Primary objective: determine the transfusion independence response rate (TI; ≥12 week & ≥8 week) for TD subjects with MF treated with momelotinib. Secondary objectives: Evaluate baseline levels and changes in markers of iron metabolism; Assess inhibition of JAK1/2; Evaluate momelotinib pharmacokinetics in transfusion-dependent subjects with MF; and Evaluate changes in circulating cytokine and inflammatory markers.

Cl.N#CCNC(=O)c1ccc(-c2ccnc(Nc3ccc(N4CCOCC4)cc3)n2)cc1 [MMB, N-(cyanomethyl)-4-(2-(4-morpholinophenylamino)pyrimidin-4-yl)benzamide]
anemia rate ([1]; SIMPLIFY 1): 14% | ≥Grade 3 anemia rate ([1]; SIMPLIFY 1): 6% | platelet counts during treatment ([1]; SIMPLIFY 1, 24 week double blind phase, FIGS. 31-33): able to maintain platelet levels | hemoglobin change ([1]; SIMPLIFY 1, after initiating MMB, FIG. 10): rapid and sustained hemoglobin improvement | ≥8 week transfusion independence rate [2]: 48.7% | ≥12 week transfusion independence rate [2]: 44.1% | ≥8 week transfusion independence rate ([3]; Phase 2 GS-US-352-1672, TD subjects, N=41): 39.0% | ≥12 week transfusion independence rate ([3]; Phase 2 GS-US-352-1672, TD subjects, N=41, listed as momelotinib): 34% and 34.1% | time to increased serum iron and transferrin ([3]; after momelotinib treatment initiation, FIG. 13): ≤ 2 weeks | TI-NR patients with decreased transfusion burden (≥50%) ([3]; any 8 week period, units of RBC, ≥2 unit decrease): 77.8% | effect on hepcidin ([3]; post-MMB administration, FIG. 11): consistently decreased hepcidin

— US11963962B2, “Platelet count-agnostic methods of treating myelofibrosis” (Sierra Oncology, Inc., priority 2018, dated 2024)
